Measurements as given in patent US20260365670A1, “EGFR INHIBITORS AND USES THEREOF” (DIZAL (JIANGSU) PHARMACEUTICAL CO., LTD., priority 2022, published 2026).
Where two headings read alike, the source gives them in different places.

Key:
EGFR Exon19Del/T790M = biological target: T1, EGFR Exon19Del/T790M (Homo sapiens, UniProt P00533, DEL746-750/T790M); assay: Inhibition of EGFR Exon19Del/T790M biochemical enzymatic activity (HTRF); conditions: 1 mM ATP
T1 construct: purchased Carna Bio
Outline: (§1)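 HTRF kinase assay: each EGFR enzyme phosphorylated 1 μM biotinylated TK substrate with 1 mM ATP in buffer containing 5 mM MgCl2, 1 mM MnCl2, 0.01% CHAPS, 1 mM DTT, 0.5% DMSO. After 1 h at room temperature, EDTA detection mix stopped the reaction. IC50 came from a four-parameter logistic fit of the 665/615 nm ratio.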

[1] = biological target: T2, EGFR[T790M/C797S/d746-750] (Homo sapiens, UniProt P00533, C797S/DEL746-750/T790M); assay: Inhibition of EGFR[T790M/C797S/d746-750] biochemical enzymatic activity (HTRF)
T2 construct: purchased Carna Bio
Outline: as §1

PC-9 = assay: Cell proliferation assay, PC-9 cells (CellTiter-Glo, 72 hours); format: cell-based; conditions: Homo sapiens, PC-9, 72 h, PC9 cells, read-out: GI50 PC9
Outline: (§2)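 Ba/F3 cells carrying EGFR mutants (5000/well) or PC-9 cells (500/well) in RPMI1640 were dosed with compound series after overnight attachment and grown 72 h. Viability read by CellTiter-Glo, with day-0 counts subtracted; GI50 from curve fits of % proliferation versus DMSO control.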

EGFR wild type = biological target: T3, EGFR wild type (Homo sapiens, UniProt P00533); assay: Inhibition of EGFR wild type biochemical enzymatic activity (HTRF); conditions: 1 mM ATP
T3 construct: purchased Carna Bio
Outline: as §1

A-431 = assay: Cell proliferation assay, A-431 cells (GI50, Table 6); format: cell-based; conditions: Homo sapiens, A-431, A-431 cells
Experimental: [Worded in the source for another cell line; this cell line is reported under the same test.] Ba/F3 cells expressing EGFR mutations were seeded in 384-well plates at 5000 cells/well in RPMI1640 medium containing […]. PC-9 at 500 cells/well was seeded into 384-well plates in RPMI1640 medium with 10% FBS. After overnight incubation, the assay plates were dosed with compounds at a series of concentrations. Alongside dosing the assay plates, the day 0 plate was processed using CellTiter-Glo® Luminescent Cell Viability Assay (Promega) to measure the number of viable cells (G0). The assay plates were further incubated for 72 hours and the number of viable cells (G3) was measured. The percentage of proliferation was calculated as: […]=100×(G3 value of sample well−G0 value)/(G3 value of DMSO control−G0 value). The concentration of compound producing 50% proliferation inhibition (GI50) was further calculated in best-fit curves using XLFit software. N/A=not available.

EGFR (C797S L858R) = biological target: T4, EGFR (C797S L858R) (Homo sapiens, UniProt P00533, C797S/L858R); assay: Inhibition of EGFR (C797S L858R) biochemical enzymatic activity (HTRF); conditions: 1 mM ATP
T4 construct: purchased signalchem
Outline: as §1

EGFR Exon19Del = biological target: T5, EGFR Exon19Del (Homo sapiens, UniProt P00533, DEL746-750); assay: Inhibition of EGFR Exon19Del biochemical enzymatic activity (HTRF); conditions: read-out: IC50 @Del19
T5 construct: purchased Carna Bio
Outline: as §1

EGFR L858R = biological target: T6, EGFR L858R (Homo sapiens, UniProt P00533, L858R); assay: Inhibition of EGFR L858R biochemical enzymatic activity (HTRF); conditions: 1 mM ATP
T6 construct: purchased Carna Bio
Outline: as §1

EGFR[T790M/C797S/L858R] = biological target: T7, EGFR[T790M/C797S/L858R] (Homo sapiens, UniProt P00533, C797S/L858R/T790M); assay: Inhibition of EGFR[T790M/C797S/L858R] biochemical enzymatic activity (HTRF); conditions: 1 mM ATP
T7 construct: purchased Carna Bio
Outline: as §1

EGFR L858R/T790M = biological target: T8, EGFR L858R/T790M (Homo sapiens, UniProt P00533, L858R/T790M); assay: Inhibition of EGFR L858R/T790M biochemical enzymatic activity (HTRF); conditions: 1 mM ATP
T8 construct: purchased Carna Bio
Outline: as §1

EGFR (d746-750 C797S) = biological target: T9, EGFR (d746-750 C797S) (Homo sapiens, UniProt P00533, C797S/DEL746-750); assay: Inhibition of EGFR (d746-750 C797S) biochemical enzymatic activity (HTRF); conditions: 1 mM ATP
T9 construct: purchased signalchem
Outline: as §1

[2] = tested on: Ba/F3 cells expressing EGFR mutations; assay: Cell proliferation assay, Ba/F3 cells expressing EGFR mutations (CellTiter-Glo, 72 hours); format: cell-based; conditions: Mus musculus, BaF3, 72 h
Outline: as §2

[3] = EGFR Del19-T790M, 1 h, room temperature, read-out: IC50 (nM) @Del19-T790M
[4] = EGFR T790M-C797S-Del19, 1 mM ATP, 1 h, room temperature, read-out: IC50 (nM) @T790M - C797S - Del19
[5] = EGFR WT, 1 h, room temperature, read-out: IC50 (nM) @WT
[6] = EGFR L858-C797S, 1 h, room temperature, read-out: IC50 (nM) @L858-C797S
[7] = EGFR Del19, 1 mM ATP, 1 h, room temperature
[8] = 1 h, room temperature, read-out: IC50 (nM) @L858R
[9] = EGFR T790M-C797S-L858R, 1 h, room temperature, read-out: IC50 (nM) @T790M- C797S - L858R
[10] = EGFR L858R-T790M, 1 h, room temperature, read-out: IC50 (nM) @L858R-T790M
[11] = EGFR Del19-C797S, 1 h, room temperature, read-out: IC50 (nM) @Del19-C797S
[12] = BaF3 cells, EGFR DEL19 - C797S, read-out: GI50 DEL19 - C797S/BaF3
[13] = BaF3 cells, EGFR DEL19 - T790-C797S, read-out: GI50 DEL19 - T790-C797S/BaF3
[14] = BaF3 cells, EGFR L858R - C797S, read-out: GI50 L858R - C797S/BaF3
[15] = BaF3 cells, EGFR L858R - T790-C797S, read-out: GI50 L858R - T790-C797S/BaF3
[16] = BaF3 cells, EGFR L858R - T790M, read-out: GI50 L858R - T790M/BaF3
[17] = BaF3 cells, EGFR L858R, read-out: GI50 L858R/BaF3
[18] = EGFR DEL19 - T790M, read-out: GI50 DEL19 - T790M

T7 sequence (P00533 25-1210 T790M/C797S/L858R): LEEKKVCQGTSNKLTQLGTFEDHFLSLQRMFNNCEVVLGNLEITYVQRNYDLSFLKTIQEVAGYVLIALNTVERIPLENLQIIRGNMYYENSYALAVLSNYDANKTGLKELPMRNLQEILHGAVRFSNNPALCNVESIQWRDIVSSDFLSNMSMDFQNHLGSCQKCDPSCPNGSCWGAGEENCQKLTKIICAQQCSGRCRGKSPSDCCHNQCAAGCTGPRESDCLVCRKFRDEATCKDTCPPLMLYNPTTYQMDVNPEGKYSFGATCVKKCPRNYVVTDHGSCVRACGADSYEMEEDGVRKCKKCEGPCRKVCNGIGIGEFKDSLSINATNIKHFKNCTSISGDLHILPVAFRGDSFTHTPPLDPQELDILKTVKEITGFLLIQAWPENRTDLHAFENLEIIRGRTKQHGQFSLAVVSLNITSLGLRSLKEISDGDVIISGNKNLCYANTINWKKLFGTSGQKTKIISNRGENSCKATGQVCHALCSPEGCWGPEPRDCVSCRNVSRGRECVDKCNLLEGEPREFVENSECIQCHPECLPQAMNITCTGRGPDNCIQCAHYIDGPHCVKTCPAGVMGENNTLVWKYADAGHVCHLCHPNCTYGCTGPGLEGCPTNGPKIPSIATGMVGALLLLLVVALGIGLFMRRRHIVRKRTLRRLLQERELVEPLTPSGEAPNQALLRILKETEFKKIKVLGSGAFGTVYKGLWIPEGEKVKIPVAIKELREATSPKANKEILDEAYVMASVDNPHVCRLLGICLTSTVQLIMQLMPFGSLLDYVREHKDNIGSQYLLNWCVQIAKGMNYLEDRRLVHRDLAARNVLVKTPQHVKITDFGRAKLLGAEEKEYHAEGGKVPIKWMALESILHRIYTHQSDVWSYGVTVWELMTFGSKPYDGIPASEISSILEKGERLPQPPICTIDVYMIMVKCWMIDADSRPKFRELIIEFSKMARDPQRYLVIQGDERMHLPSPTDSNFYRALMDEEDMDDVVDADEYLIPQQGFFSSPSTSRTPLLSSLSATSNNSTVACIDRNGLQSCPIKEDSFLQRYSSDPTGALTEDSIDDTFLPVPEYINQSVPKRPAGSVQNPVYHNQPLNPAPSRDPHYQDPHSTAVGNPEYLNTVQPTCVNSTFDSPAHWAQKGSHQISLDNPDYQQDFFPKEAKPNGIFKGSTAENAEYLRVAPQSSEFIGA
T6 sequence (P00533 25-1210 L858R): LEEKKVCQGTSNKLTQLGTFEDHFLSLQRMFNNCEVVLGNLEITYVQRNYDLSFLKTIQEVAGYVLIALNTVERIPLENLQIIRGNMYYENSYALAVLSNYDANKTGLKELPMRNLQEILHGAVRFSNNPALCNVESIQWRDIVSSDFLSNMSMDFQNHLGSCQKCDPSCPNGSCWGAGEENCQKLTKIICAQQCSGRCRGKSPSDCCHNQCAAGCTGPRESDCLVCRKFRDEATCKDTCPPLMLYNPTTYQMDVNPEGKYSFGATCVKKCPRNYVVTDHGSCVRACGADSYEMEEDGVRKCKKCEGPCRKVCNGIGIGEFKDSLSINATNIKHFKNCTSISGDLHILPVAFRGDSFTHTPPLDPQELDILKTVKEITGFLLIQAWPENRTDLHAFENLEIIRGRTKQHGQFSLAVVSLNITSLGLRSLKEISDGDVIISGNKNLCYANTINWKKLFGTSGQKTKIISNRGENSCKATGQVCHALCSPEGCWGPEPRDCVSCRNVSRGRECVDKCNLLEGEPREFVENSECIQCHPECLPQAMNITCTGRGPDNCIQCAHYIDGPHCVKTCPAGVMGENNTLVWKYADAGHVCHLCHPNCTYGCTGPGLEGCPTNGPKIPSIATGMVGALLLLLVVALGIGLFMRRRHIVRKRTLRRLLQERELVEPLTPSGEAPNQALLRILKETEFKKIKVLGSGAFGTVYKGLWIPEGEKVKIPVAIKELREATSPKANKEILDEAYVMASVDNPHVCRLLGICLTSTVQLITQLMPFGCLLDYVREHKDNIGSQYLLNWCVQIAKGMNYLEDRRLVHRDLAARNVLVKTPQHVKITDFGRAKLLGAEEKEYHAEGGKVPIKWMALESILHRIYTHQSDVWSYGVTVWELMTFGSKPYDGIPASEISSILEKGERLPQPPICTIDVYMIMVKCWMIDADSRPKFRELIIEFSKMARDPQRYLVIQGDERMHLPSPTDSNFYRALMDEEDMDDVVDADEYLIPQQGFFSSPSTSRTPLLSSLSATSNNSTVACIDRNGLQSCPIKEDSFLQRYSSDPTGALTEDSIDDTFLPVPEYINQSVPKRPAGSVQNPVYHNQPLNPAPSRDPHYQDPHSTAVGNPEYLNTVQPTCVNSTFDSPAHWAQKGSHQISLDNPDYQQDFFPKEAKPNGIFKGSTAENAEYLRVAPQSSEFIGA
T9 sequence (P00533 with tags, fused parts or gaps DEL746-750/C797S limits assumed): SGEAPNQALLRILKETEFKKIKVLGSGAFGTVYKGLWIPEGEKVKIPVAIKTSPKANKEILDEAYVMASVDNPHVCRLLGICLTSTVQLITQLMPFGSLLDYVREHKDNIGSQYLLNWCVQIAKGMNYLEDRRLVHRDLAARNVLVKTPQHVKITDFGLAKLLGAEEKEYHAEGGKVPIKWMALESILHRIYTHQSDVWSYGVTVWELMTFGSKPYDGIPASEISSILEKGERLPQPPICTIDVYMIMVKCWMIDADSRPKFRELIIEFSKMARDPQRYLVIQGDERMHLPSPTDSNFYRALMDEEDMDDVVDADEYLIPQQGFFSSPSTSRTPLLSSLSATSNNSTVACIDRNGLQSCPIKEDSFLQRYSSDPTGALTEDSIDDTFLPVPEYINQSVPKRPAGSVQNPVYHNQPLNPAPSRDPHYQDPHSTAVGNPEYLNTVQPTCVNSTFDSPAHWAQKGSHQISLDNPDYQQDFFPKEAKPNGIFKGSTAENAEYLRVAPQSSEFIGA
T4 sequence (P00533 25-1210 C797S/L858R): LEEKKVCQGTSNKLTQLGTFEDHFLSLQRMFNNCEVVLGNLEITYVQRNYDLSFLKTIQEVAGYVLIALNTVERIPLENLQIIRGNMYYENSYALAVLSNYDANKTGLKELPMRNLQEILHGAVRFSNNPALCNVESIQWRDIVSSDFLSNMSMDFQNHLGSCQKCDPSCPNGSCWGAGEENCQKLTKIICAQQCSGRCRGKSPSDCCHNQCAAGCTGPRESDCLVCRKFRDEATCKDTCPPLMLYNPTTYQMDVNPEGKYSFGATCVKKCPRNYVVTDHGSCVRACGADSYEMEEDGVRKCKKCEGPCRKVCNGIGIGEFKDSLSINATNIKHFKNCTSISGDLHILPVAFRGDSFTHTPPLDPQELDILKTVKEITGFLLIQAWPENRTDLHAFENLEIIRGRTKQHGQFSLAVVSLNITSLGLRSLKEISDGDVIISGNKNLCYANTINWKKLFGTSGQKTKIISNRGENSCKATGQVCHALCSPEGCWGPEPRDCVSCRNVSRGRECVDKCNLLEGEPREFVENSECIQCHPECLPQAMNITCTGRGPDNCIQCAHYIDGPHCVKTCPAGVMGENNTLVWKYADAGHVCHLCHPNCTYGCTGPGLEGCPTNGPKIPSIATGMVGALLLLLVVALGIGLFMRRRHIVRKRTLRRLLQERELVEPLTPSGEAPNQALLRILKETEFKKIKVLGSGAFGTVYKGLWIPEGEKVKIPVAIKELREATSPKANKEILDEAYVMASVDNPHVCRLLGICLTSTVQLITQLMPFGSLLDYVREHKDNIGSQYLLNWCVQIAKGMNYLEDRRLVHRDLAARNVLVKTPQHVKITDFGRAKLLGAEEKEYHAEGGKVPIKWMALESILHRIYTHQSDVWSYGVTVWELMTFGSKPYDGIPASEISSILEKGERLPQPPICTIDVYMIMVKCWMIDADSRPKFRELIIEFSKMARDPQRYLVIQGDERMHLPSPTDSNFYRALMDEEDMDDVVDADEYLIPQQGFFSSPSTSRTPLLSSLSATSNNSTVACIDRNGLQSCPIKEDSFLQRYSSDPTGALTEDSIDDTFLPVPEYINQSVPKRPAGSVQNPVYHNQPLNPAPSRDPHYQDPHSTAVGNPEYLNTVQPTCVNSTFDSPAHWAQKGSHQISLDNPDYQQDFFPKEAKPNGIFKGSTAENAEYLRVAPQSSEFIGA
T5 sequence (P00533 with tags, fused parts or gaps DEL746-750 limits assumed): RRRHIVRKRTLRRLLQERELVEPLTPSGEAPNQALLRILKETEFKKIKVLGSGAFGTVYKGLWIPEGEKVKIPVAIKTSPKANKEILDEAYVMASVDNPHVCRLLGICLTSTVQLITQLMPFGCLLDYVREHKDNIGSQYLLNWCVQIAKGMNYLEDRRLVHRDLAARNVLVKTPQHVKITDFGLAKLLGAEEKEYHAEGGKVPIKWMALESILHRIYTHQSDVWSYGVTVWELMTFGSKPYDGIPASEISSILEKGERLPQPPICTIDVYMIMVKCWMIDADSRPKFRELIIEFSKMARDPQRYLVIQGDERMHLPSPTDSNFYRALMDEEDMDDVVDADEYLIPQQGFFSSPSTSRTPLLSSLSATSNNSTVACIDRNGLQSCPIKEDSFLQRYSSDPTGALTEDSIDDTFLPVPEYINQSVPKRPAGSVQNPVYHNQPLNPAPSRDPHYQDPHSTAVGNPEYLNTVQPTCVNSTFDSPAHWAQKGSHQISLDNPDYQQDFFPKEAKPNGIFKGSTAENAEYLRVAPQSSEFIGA

Row | Structure (SMILES) | IC50 (EGFR Exon19Del/T790M; [3]) [nM] | IC50 [1, 4] [nM] | GI50 (PC-9) [nM] | IC50 (EGFR wild type; [5]) [nM] | GI50 (A-431) [nM] | IC50 (EGFR (C797S L858R); [6]) [nM] | IC50 (EGFR Exon19Del; [7]) [nM] | IC50 (EGFR L858R; [8]) [nM] | IC50 (EGFR[T790M/C797S/L858R]; [9]) [nM] | IC50 (EGFR L858R/T790M; [10]) [nM] | IC50 (EGFR (d746-750 C797S); [11]) [nM] | GI50 [2, 12] [nM] | GI50 [2, 13] [nM] | GI50 [2, 14] [nM] | GI50 [2, 15] [nM] | GI50 [2, 16] [nM] | GI50 [2, 17] [nM] | GI50 [2, 18] [nM] | other results
1 | CN(C)[C@H]1CCN(c2ccc3nc4n(c3c2)C23CCC(CC2)CN(CCOc2c(cnn2C)-c2cc(cn(C)c2=O)C(=O)N4)C3)C1 [Example A120] | 16 | 15 | 54 | > 5000 | 7850 | 108 | 22 | 177 | 113 | 374 | 14 | 13 | 71 | 50 | 28 | 113 | 8.1 | 40 | –
2 | Cc1cc2cc(n1)-c1cnn(C)c1OCCCCCn1c(nc3ccc4c(c31)CCN(C1COC1)C4)NC2=O [Example B17, 5,30-Dimethyl-18-(oxetan-3-yl)-7-oxa-4,5,13,18,24,26,31-heptaazahexacyclo[26.3.1.0^{2,6}.0^{13,25}.0^{14,23}.0^{15,20}]dotriaconta-1(31),2(6),3,14,20,22,24,28(32),29-nonaen-27-one] | – | – | 71 | – | 1090 | – | – | – | – | – | – | 26 | 10 | 82 | 6 | 21 | 114 | 8.7 | IC50 (EGFR Exon19Del/T790M; EGFR Exon19Del/T790M, 1 h at room temperature, read-out: IC50 @Del19-T790M): 128 nM; IC50 ([1]; EGFR[T790M/C797S/d746-750], 1 mM ATP, 1 h at room temperature, read-out: IC50 @T790M - C797S - Del19): 51 nM; IC50 (EGFR wild type; EGFR wild type, 1 h at room temperature, read-out: IC50 @WT): > 5000 nM; IC50 (EGFR (C797S L858R); EGFR (C797S L858R), 1 h at room temperature, read-out: IC50 @L858-C797S): > 5000 nM; IC50 (EGFR Exon19Del; EGFR Exon19Del, 1 mM ATP, 1 h at room temperature): > 5000 nM; IC50 (EGFR L858R; 1 h at room temperature, read-out: IC50 @L858R): > 5000 nM; IC50 (EGFR[T790M/C797S/L858R]; EGFR[T790M/C797S/L858R], 1 h at room temperature, read-out: IC50 @T790M- C797S - L858R): 4160 nM; IC50 (EGFR L858R/T790M; EGFR L858R/T790M, 1 h at room temperature, read-out: IC50 @L858R-T790M): > 5000 nM; IC50 (EGFR (d746-750 C797S); EGFR (d746-750 C797S), 1 h at room temperature, read-out: IC50 @Del19-C797S): 2110 nM
3 | CN(C)CCN(C)c1ccc2nc3n(c2c1)C12CCC(CC1)CN(CCOc1c(cnn1C)-c1cc(cn(C)c1=O)C(=O)N3)C2 [Example A124] | 9.8 | 7.7 | 27 | 2790 | 3800 | 76 | 15 | 139 | 72 | 334 | 11 | 7.2 | 38 | 32 | 11 | 47 | 5.2 | 26 | –
